Results from patent publication US9771358B2, “Dihydropyrimidine compounds and their application in pharmaceuticals” (SUNSHINE LAKE PHARMA CO., LTD., priority 2014, dated 2017).

System: HBV
Test: In-vitro anti-HBV activity in stable HBV-producing cell line (HepG2.2.15), HBV DNA by qPCR
Assay type: cell-based
Settings: Hepatitis B virus, 168 h; HepG2.2.15 cells, HBV DNA in culture fluid, day 7, top concentration 16.4 μM
Experimental: HBV DNA contents in cell culture fluid were detected by the qPCR-based assay and 50% effective concentration (EC50) values of the compounds against HBV were calculated. Specific procedures are as follows:
HepG2.2.15 cells were seeded into each well of 96-well plates, 40,000 cells per well. Cells were treated with cell culture medium containing compounds with different concentrations for 24 hours after cell seeding. The final concentration of each compound was 16.4 μM in each well and each compound was diluted to desired concentration using 3-fold gradient dilution protocol, 9 diluted points in duplicate. The culture mediums containing the compounds were refreshed on day 4 post cell seeding. Culture media were collected from the HepG2.2.15 plates on day 7 post cell seeding followed by HBV DNA extraction.
HBV DNA extraction: The HBV DNA extraction was performed using QIAamp 96 DNA Blood Kit (QIAGEN 51161).
PCR for quantification: PCR mix was prepared according to PCR system. PCR mix was dispensed to 96-well optical reaction plates (special for quantification). The standard diluted proportionally was added. Then the sample was added; The plates were sealed with optical adhesive film; PCR system was performed according to programs.
Percentage of HBV inhibition of DNA replication by compound was calculated using the following equation: % Inh.=[1-HBV DNA quantity of sample/HBV DNA quantity of DMSO control]×100.
Calculating EC50 value of compounds to HBV replication: the EC50 values were calculated based on “four-parameter logistic equation” and using GraphPad Prism 5 analysis software.

Going from `CCOC(=O)C1=C(CN2CCOC(CCC(=O)O)C2)NC(c2nccs2)=NC1c1ccc(F)cc1Br` (racemic) [contrast 1, 3-(4-((6-(2-bromo-4-fluorophenyl)-5-(ethoxycarbonyl)-2-(thiazol-2-yl)-3,6-dihydropyrimidin-4-yl)methyl)morpholin-2-yl)propanoic acid, reference compound] to `CCOC(=O)C1=C(CN2CCO[C@H](CCC(=O)O)C2)NC(c2nccs2)=N[C@@H]1c1ccc(F)cc1Br` [Example 35, 3-((R)-4-(((S)-6-(2-Bromo-4-fluorophenyl)-5-(ethoxycarbonyl)-2-(thiazol-2-yl)-3,6-dihydropyrimidin-4-yl)methyl)morpholin-2-yl)propanoic acid], the EC50 rises from 260 nM to > 12200 nM. The first is the more potent here.

Compared with `CCOC(=O)C1=C(CN2CCO[C@H](CCC(=O)O)C2)NC(c2nccs2)=N[C@@H]1c1ccc(Cl)cc1Cl` [Example 43, 3-((R)-4-(((S)-6-(2,4-Dichlorophenyl)-5-(ethoxycarbonyl)-2-(thiazol-2-yl)-3,6-dihydropyrimidin-4-yl)methyl)morpholin-2-yl)propanoic acid], `CCOC(=O)C1=C(CN2CCO[C@@H](CCC(=O)O)C2)NC(c2nccs2)=N[C@H]1c1ccc(Cl)cc1Cl` [Example 25, 3-((S)-4-(((R)-6-(2,4-Dichlorophenyl)-5-(ethoxycarbonyl)-2-(thiazol-2-yl)-3,6-dihydropyrimidin-4-yl)methyl)morpholin-2-yl)propanoic acid] is lower in EC50: > 11700 nM for the first, 86 nM for the second.

Compared with `COC(=O)C1=C(CN2CCOC(CCC(=O)O)C2)NC(c2nccs2)=NC1c1ccc(F)cc1Cl` (racemic) [contrast 3, 3-(4-((6-(2-chloro-4-fluorophenyl)-5-(methoxycarbonyl)-2-(thiazol-2-yl)-3,6-dihydropyrimidin-4-yl)methyl)morpholin-2-yl)propanoic acid, reference compound], `COC(=O)C1=C(CN2CCO[C@@H](CCC(=O)O)C2)NC(c2nccs2)=N[C@H]1c1ccc(F)cc1Cl` [Example 24, 3-((S)-4-(((R)-6-(2-Chloro-4-fluorophenyl)-5-(methoxycarbonyl)-2-(thiazol-2-yl)-3,6-dihydropyrimidin-4-yl)methyl)morpholin-2-yl)propanoic acid] is 2.7-fold lower in EC50: 290 nM for the first, 107 nM for the second.

`COC(=O)C1=C(CN2CCO[C@H](CCC(=O)O)C2)NC(c2nccs2)=N[C@@H]1c1ccc(Cl)cc1Cl` [Example 45, 3-((R)-4-(((S)-6-(2,4-dichlorophenyl)-5-(methoxycarbonyl)-2-(thiazol-2-yl)-3,6-dihydropyrimidin-4-yl)methyl)morpholin-2-yl)propanoic acid] and `COC(=O)C1=C(CN2CCO[C@@H](CCC(=O)O)C2)NC(c2nccs2)=N[C@@H]1c1ccc(Cl)cc1Cl` [Example 46, 3-((S)-4-(((S)-6-(2,4-Dichlorophenyl)-5-(methoxycarbonyl)-2-(thiazol-2-yl)-3,6-dihydropyrimidin-4-yl)methyl)morpholin-2-yl)propanoic acid] cannot be ordered by EC50: > 11300 nM for the first, > 14200 nM for the second.

Going from `COC(=O)C1=C(CN2CCOC(CCC(=O)O)C2)NC(c2nccs2)=NC1c1ccc(F)cc1Br` (racemic) [contrast 4, 3-(4-((6-(2-bromo-4-fluorophenyl)-5-(methoxycarbonyl)-2-(thiazol-2-yl)-3,6-dihydropyrimidin-4-yl)methyl)morpholin-2-yl)propanoic acid, reference compound] to `COC(=O)C1=C(CN2CCO[C@@H](CCC(=O)O)C2)NC(c2nccs2)=N[C@@H]1c1ccc(F)cc1Br` [Example 42, 3-((S)-4-(((S)-6-(2-Bromo-4-fluorophenyl)-5-(methoxycarbonyl)-2-(thiazol-2-yl)-3,6-dihydropyrimidin-4-yl)methyl)morpholin-2-yl)propanoic acid], the EC50 rises from 250 nM to > 15300 nM. The first is the more potent here.

Going from `CCOC(=O)C1=C(CN2CCO[C@@H](CCC(=O)O)C2)NC(c2nccs2)=N[C@@H]1c1ccc(F)cc1Cl` [Example 38, 3-((S)-4-(((S)-6-(2-Chloro-4-fluorophenyl)-5-(ethoxycarbonyl)-2-(thiazol-2-yl)-3,6-dihydropyrimidin-4-yl)methyl)morpholin-2-yl)propanoic acid] to `CCOC(=O)C1=C(CN2CCO[C@@H](CCC(=O)O)C2)NC(c2nccs2)=N[C@H]1c1ccc(F)cc1Cl` [Example 23, 3-((S)-4-(((R)-6-(2-Chloro-4-fluorophenyl)-5-(ethoxycarbonyl)-2-(thiazol-2-yl)-3,6-dihydropyrimidin-4-yl)methyl)morpholin-2-yl)propanoic acid], the EC50 falls from > 16400 nM to 110 nM. The second is the more potent here.

`CCOC(=O)C1=C(CN2CCOC[C@@H]2CCC(=O)O)NC(c2nccs2)=N[C@@H]1c1ccc(F)cc1Br` [Example 48, 3-((S)-4-(((S)-6-(2-Bromo-4-fluorophenyl)-5-(ethoxycarbonyl)-2-(thiazol-2-yl)-3,6-dihydropyrimidin-4-yl)methyl)morpholin-3-yl)propanoic acid] and `COC(=O)C1=C(CN2CCOC[C@H]2CCC(=O)O)NC(c2nccs2)=N[C@@H]1c1ccc(F)cc1Br` [Example 49, 3-((R)-4-(((S)-6-(2-Bromo-4-fluorophenyl)-5-(methoxycarbonyl)-2-(thiazol-2-yl)-3,6-dihydropyrimidin-4-yl)methyl)morpholin-3-yl)propanoic acid] cannot be ordered by EC50: > 10300 nM for the first, > 16400 nM for the second.

Going from `CCOC(=O)C1=C(CN2CCO[C@H](CCCCC(=O)O)C2)NC(c2nccs2)=N[C@H]1c1ccc(F)cc1Br` [Example 7, 5-((R)-4-(((R)-6-(2-Bromo-4-fluorophenyl)-5-(ethoxycarbonyl)-2-(thiazol-2-yl)-3,6-dihydropyrimidin-4-yl)methyl)morpholin-2-yl)pentanoic acid] to `CCOC(=O)C1=C(CN2CCOC(CCC(=O)O)C2)NC(c2nccs2)=NC1c1ccc(F)cc1Cl` (racemic) [contrast 2, 3-(4-((6-(2-chloro-4-fluorophenyl)-5-(ethoxycarbonyl)-2-(thiazol-2-yl)-3,6-dihydropyrimidin-4-yl)methyl)morpholin-2-yl)propanoic acid, reference compound], the EC50 rises from 72 nM to 360 nM (5-fold).

Compared with `CCOC(=O)C1=C(CN2CCOC(CCC(=O)O)C2)NC(c2nccs2)=NC1c1ccc(Cl)cc1Cl` (racemic) [contrast 5, 3-(4-((6-(2,4-dichlorophenyl)-5-(ethoxycarbonyl)-2-(thiazol-2-yl)-3,6-dihydropyrimidin-4-yl)methyl)morpholin-2-yl)propanoic acid, reference compound], `COC(=O)C1=C(CN2CCO[C@@H](CCC(=O)O)C2)NC(c2nccs2)=N[C@@H]1c1ccc(F)cc1Cl` [Example 40, 3-((S)-4-(((S)-6-(2-Chloro-4-fluorophenyl)-5-(methoxycarbonyl)-2-(thiazol-2-yl)-3,6-dihydropyrimidin-4-yl)methyl)morpholin-2-yl)propanoic acid] is higher in EC50: 230 nM for the first, > 16400 nM for the second.

First: CCOC(=O)C1=C(CN2CCO[C@H](C)[C@H]2CCC(=O)O)NC(c2nccs2)=N[C@H]1c1ccc(F)cc1Br [Example 5, 3-((2R,3R)-4-(((R)-6-(2-Bromo-4-fluorophenyl)-5-(ethoxycarbonyl)-2-(thiazol-2-yl)-3,6-dihydropyrimidin-4-yl)methyl)-2-methylmorpholin-3-yl)propanoic acid]
Second: COC(=O)C1=C(CN2CCOCC2CCC(=O)O)NC(c2nccs2)=NC1c1ccc(F)cc1Br (racemic) [contrast 12, 3-(4-((6-(2-bromo-4-fluorophenyl)-5-(methoxycarbonyl)-2-(thiazol-2-yl)-3,6-dihydropyrimidin-4-yl)methyl)morpholin-3-yl)propanoic acid, reference compound]
The EC50 of the first is 4.1-fold higher: 306 nM for the first, 75 nM for the second. The second is the more potent here.

Compared with `COC(=O)C1=C(CN2CCOC[C@@H]2CCC(=O)O)NC(c2nccs2)=N[C@H]1c1ccc(F)cc1Cl` [Example 18, 3-((S)-4-(((R)-6-(2-Chloro-4-fluorophenyl)-5-(methoxycarbonyl)-2-(thiazol-2-yl)-3,6-dihydropyrimidin-4-yl)methyl)morpholin-3-yl)propanoic acid], `CCOC(=O)C1=C(CN2CCOC[C@@H]2CCC(=O)O)NC(c2nccs2)=N[C@H]1c1ccc(Cl)cc1Cl` [Example 19, 3-((S)-4-(((R)-6-(2,4-Dichlorophenyl)-5-(ethoxycarbonyl)-2-(thiazol-2-yl)-3,6-dihydropyrimidin-4-yl)methyl)morpholin-3-yl)propanoic acid] is 1.7-fold lower in EC50: 10 nM for the first, 6 nM for the second. The second is the more potent here.

Same assay, conditions: Hepatitis B virus, HepG2.2.15; isomers of compound of formular (II)

Molecule `CCOC(=O)C1=C(CN2CCO[C@@H](CCC(=O)O)C2)NC(c2nccs2)=N[C@H]1c1ccc(F)cc1Cl` [Example 23, 3-((S)-4-(((R)-6-(2-Chloro-4-fluorophenyl)-5-(ethoxycarbonyl)-2-(thiazol-2-yl)-3,6-dihydropyrimidin-4-yl)methyl)morpholin-2-yl)propanoic acid] has an EC50 of 110 nM.
